Source: PubChem BioAssay (NCI)
“And” between values parts separate entries of the source, which are not always exact repeats. Equal entries are not always repeated.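 Interpolation was linear, between the two tested concentrations surrounding the appropriate level; five concentrations were tested over 48 hours in 96-well plates. Abbreviation: GI50, concentration required for 50% inhibition of growth. TGI marks complete inhibition of growth.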 *1 amine or outer side, *2 acyl side, *3 side chain or, on linkers, in order; H or OH if unused. Where a SMILES comes first, the peptide text is derived from it. CO = O=C([*:1])[*:2]

How the values were obtained:
Experiment in all cases: growth of human tumour cells (NCI), 48 h
HOP-92 NSCLC = test system: HOP-92 NSCLC
K-562 leukemia = test system: K-562 leukemia
KM12 colon = test system: KM12 colon
OVCAR-4 ovarian = test system: OVCAR-4 ovarian
OVCAR-8 ovarian = test system: OVCAR-8 ovarian
SW-620 colon = test system: SW-620 colon
U251 CNS = test system: U251 CNS
UACC-62 melanoma = test system: UACC-62 melanoma

Structure (SMILES) | TGI (HOP-92 NSCLC) | TGI (K-562 leukemia) | TGI (KM12 colon) | TGI (OVCAR-4 ovarian) | TGI (OVCAR-8 ovarian) | TGI (SW-620 colon) | TGI (U251 CNS) | TGI (UACC-62 melanoma) | GI50 (HOP-92 NSCLC) | GI50 (KM12 colon) | GI50 (OVCAR-4 ovarian) | GI50 (OVCAR-8 ovarian) | GI50 (SW-620 colon) | GI50 (U251 CNS) | GI50 (UACC-62 melanoma) | GI50 (K-562 leukemia)
CC1(C)CC2=NOS3=C2C(=NO3)C1c1ccccn1 (stereo not given) | > 100 µM | 62.8 µM | > 100 µM | > 100 µM | > 100 µM | > 100 µM | > 100 µM | > 100 µM |  |  |  |  |  |  |  | 
CCC(=O)Nc1ccc2c(c1)CN1C(=O)c3ccccc3C1=N2 | > 100 µM |  | > 100 µM | > 100 µM | > 100 µM | > 100 µM | > 100 µM | > 100 µM | > 100 µM | > 100 µM | > 100 µM | > 100 µM | > 100 µM | > 100 µM | > 100 µM | 
Cc1cc(Nc2ncc(Cl)c(Nc3ccccc3S(=O)(=O)C(C)C)n2)c(OC(C)C)cc1C1CCNCC1 | 1.55 µM | 3.82 µM | 3.11 µM and 2.1 µM | 7.61 µM and 2.46 µM | 3.59 µM and 4.23 µM | 2.61 µM | 2.72 µM | 2.84 µM and 2.43 µM | 0.346 µM | 1.49 µM and 0.911 µM | 2.14 µM and 1.15 µM | 1.74 µM and 1.41 µM | 0.776 µM | 1.39 µM | 1.49 µM and 1.17 µM | 1.39 µM
Cc1cc(Nc2nc(N3CCOCC3)nc3ccccc23)n[nH]1 | 62.8 µM | > 100 µM | > 100 µM | > 100 µM | > 100 µM | 56.8 µM | 21.6 µM |  | 4.22 µM | 0.4 µM | 7.26 µM | 21.1 µM | 4.81 µM | 4.83 µM |  | 5.14 µM
Cc1cc2c(cc1C)[n+](=O)c(C(=O)c1cccs1)c(C(F)(F)F)n2[O-] | 10.6 µM and 37.9 µM | 50 µM and 16.3 µM | 12.6 µM and 51.9 µM | 50 µM and 10.7 µM | 50 µM and 6.61 µM | 50 µM and 50.6 µM | 25.5 µM and 75.8 µM | 12.8 µM and 21.7 µM | 1.53 µM and 5.5 µM | 5.38 µM and 10.3 µM | 6.44 µM and 3.56 µM | 1.67 µM and 2.02 µM | 2.48 µM and 11.5 µM | 6.83 µM and 3.96 µM | 3.02 µM and 6.56 µM | 1.43 µM and 2.81 µM
Cc1ccc(-c2nc3nc(-c4ccc(Cl)cc4)nc(N4CCCNCC4)c3o2)cc1 | 2.91 µM |  | 3.81 µM | 3.39 µM | 4.77 µM | 3.32 µM | 3.55 µM | 3.24 µM | 1.36 µM | 1.93 µM | 1.84 µM | 2.15 µM | 1.7 µM | 1.85 µM | 1.74 µM | 
CC(C)C(NC(=O)C(CCCN=C(N)N)NC(=O)NC(Cc1ccccc1)C(=O)O)C(=O)NC(C=O)CCCN=C(N)N (stereo not drawn) ({Phe-CO}-Arg-Val-Arg-aldehyde; configuration not given here) |  | > 5 µM | > 5 µM | > 5 µM | > 5 µM | > 5 µM | > 5 µM | > 5 µM |  | > 5 µM | > 5 µM | > 5 µM | > 5 µM | > 5 µM | > 5 µM | > 5 µM
Cc1cccc(Oc2ccc(Nc3ncnc4ccc(NC(=O)CN5CCN(C)CC5)cc34)cc2Cl)c1 | 2.59 µM | 4.33 µM | 3.24 µM | 4.3 µM | 5.68 µM | 3.27 µM |  | 3.56 µM | 1.17 µM | 1.74 µM | 1.72 µM | 2.11 µM | 1.69 µM |  | 1.84 µM | 1.61 µM
